PubChem BioAssay AID2060496 (Molecular Pharmacology Branch, DTP, NCI, 2025)

Tested on: 276233-004-R-J1-PDC complex spheroid viability
Assay: Anticancer human tumor 276233-004-R-J1-PDC patient-derived colon adenocarcinoma cell line growth inhibition [GQUAD]
Settings: for IC50: curve of first compound; for viability, T/C: stronger effect = lower value
Summary of the method: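 Tumor cells were grown as complex spheroids with HUVEC endothelial cells and mesenchymal stem cells as stroma. G-quadruplex stabilizers were combined with targeted agents over half-log dilutions from near the clinical Cmax, or from 10 microM.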

[1] = second compound 0.0316 µM, first compound 0.0316 µM
[2] = second compound 0.0316 µM, first compound 0.1 µM
[3] = second compound 0.0316 µM, first compound 0.316 µM
[4] = second compound 0.0316 µM, first compound 1 µM
[5] = second compound 0.0316 µM, first compound 3.16 µM
[6] = second compound 0.0316 µM, first compound 10 µM
[7] = second compound 0.1 µM, first compound 0.0316 µM
[8] = second compound 0.1 µM, first compound 0.1 µM
[9] = second compound 0.1 µM, first compound 0.316 µM
[10] = second compound 0.1 µM, first compound 1 µM
[11] = second compound 0.1 µM, first compound 3.16 µM
[12] = second compound 0.1 µM, first compound 10 µM
[13] = second compound 0.316 µM, first compound 0.0316 µM
[14] = second compound 0.316 µM, first compound 0.1 µM
[15] = second compound 0.316 µM, first compound 0.316 µM
[16] = second compound 0.316 µM, first compound 1 µM
[17] = second compound 0.316 µM, first compound 3.16 µM
[18] = second compound 0.316 µM, first compound 10 µM
[19] = second compound 1 µM, first compound 0.0316 µM
[20] = second compound 1 µM, first compound 0.1 µM
[21] = second compound 1 µM, first compound 0.316 µM
[22] = second compound 1 µM, first compound 1 µM
[23] = second compound 1 µM, first compound 3.16 µM
[24] = second compound 1 µM, first compound 10 µM
[25] = second compound 3.16 µM, first compound 0.0316 µM
[26] = second compound 3.16 µM, first compound 0.1 µM
[27] = second compound 3.16 µM, first compound 0.316 µM
[28] = second compound 3.16 µM, first compound 1 µM
[29] = second compound 3.16 µM, first compound 3.16 µM
[30] = second compound 3.16 µM, first compound 10 µM
[31] = second compound 10 µM, first compound 0.0316 µM
[32] = second compound 10 µM, first compound 0.1 µM
[33] = second compound 10 µM, first compound 0.316 µM
[34] = second compound 10 µM, first compound 1 µM
[35] = second compound 10 µM, first compound 3.16 µM
[36] = second compound 10 µM, first compound 10 µM
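Note: spheroids exposed to drugs for seven days.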
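Throughout, for viability, T/C: 100% = DMSO vehicle control viability.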

Q: How did the IC50 (second compound 0.0316 µM) turn out when `CC(=O)O[C@H]1C(=O)[C@@]2(C)[C@H]([C@H](OC(=O)c3ccccc3)[C@]3(O)C[C@H](OC(=O)[C@H](O)[C@@H](NC(=O)c4ccccc4)c4ccccc4)C(C)=C1C3(C)C)[C@]1(OC(C)=O)CO[C@@H]1C[C@@H]2O` + CN(C)c1ccc(Nc2c3ccc(NC(=O)CCN4CCCC4)cc3nc3cc(NC(=O)CCN4CCCC4)ccc23)cc1 was run?
A: > 10 µM

Q: And the IC50 (second compound 0.1 µM)?
A: > 10 µM

Q: What about the IC50 (second compound 0.316 µM) of the same compound?
A: > 10 µM

Q: What about the IC50 (second compound 1 µM) of the same compound?
A: 4.25 µM

Q: And the IC50 (second compound 3.16 µM)?
A: < 0.0316 µM

Q: And the IC50 (second compound 10 µM)?
A: < 0.0316 µM

Q: And the viability, T/C [1]?
A: 86.5%

Q: What about the viability, T/C [2] of the same compound?
A: 98.3%

Q: And the viability, T/C [3]?
A: 87.9%

Q: And the viability, T/C [4]?
A: 85.2%

Q: What about the viability, T/C [5] of the same compound?
A: 88%

Q: And the viability, T/C [6]?
A: 80.6%

Q: What about the viability, T/C [7] of the same compound?
A: 70.4%

Q: What about the viability, T/C [8] of the same compound?
A: 82.2%

Q: And the viability, T/C [9]?
A: 65.8%

Q: And the viability, T/C [10]?
A: 79.7%

Q: And the viability, T/C [11]?
A: 69.8%

Q: And the viability, T/C [12]?
A: 69.8%

Q: And the viability, T/C [13]?
A: 67.5%

Q: And the viability, T/C [14]?
A: 65.5%

Q: And the viability, T/C [15]?
A: 57.4%

Q: And the viability, T/C [16]?
A: 54.1%

Q: What about the viability, T/C [17] of the same compound?
A: 67.8%

Q: And the viability, T/C [18]?
A: 54.9%

Q: And the viability, T/C [19]?
A: 52.7%

Q: What about the viability, T/C [20] of the same compound?
A: 52.6%

Q: And the viability, T/C [21]?
A: 57%

Q: What about the viability, T/C [22] of the same compound?
A: 55.9%

Q: And the viability, T/C [23]?
A: 54.4%

Q: What about the viability, T/C [24] of the same compound?
A: 41.7%

Q: And the viability, T/C [25]?
A: 44.4%

Q: What about the viability, T/C [26] of the same compound?
A: 41.9%

Q: What about the viability, T/C [27] of the same compound?
A: 37.2%

Q: And the viability, T/C [28]?
A: 49.5%

Q: And the viability, T/C [29]?
A: 50%

Q: What about the viability, T/C [30] of the same compound?
A: 49.7%

Q: What about the viability, T/C [31] of the same compound?
A: 36.8%

Q: What about the viability, T/C [32] of the same compound?
A: 44.1%

Q: What about the viability, T/C [33] of the same compound?
A: 43.7%

Q: What about the viability, T/C [34] of the same compound?
A: 44.3%

Q: And the viability, T/C [35]?
A: 51.9%

Q: And the viability, T/C [36]?
A: 51.7%

Q: With `CC1COCCN1c1cc(C2(S(C)(=N)=O)CC2)nc(-c2ccnc3[nH]ccc23)n1` (centres undefined) + CN(C)c1ccc(Nc2c3ccc(NC(=O)CCN4CCCC4)cc3nc3cc(NC(=O)CCN4CCCC4)ccc23)cc1 as the compound, how does the IC50 (second compound 0.0316 µM) read?
A: > 10 µM

Q: What about the IC50 (second compound 0.1 µM) of the same compound?
A: > 10 µM

Q: And the IC50 (second compound 0.316 µM)?
A: 4.01 µM

Q: What about the IC50 (second compound 1 µM) of the same compound?
A: 1.96 µM

Q: And the IC50 (second compound 3.16 µM)?
A: 3.16 µM

Q: What about the IC50 (second compound 10 µM) of the same compound?
A: < 0.0316 µM

Q: And the viability, T/C [1]?
A: 97.8%

Q: What about the viability, T/C [2] of the same compound?
A: 91%

Q: What about the viability, T/C [3] of the same compound?
A: 89.8%

Q: What about the viability, T/C [4] of the same compound?
A: 81.3%

Q: And the viability, T/C [5]?
A: 66.7%

Q: What about the viability, T/C [6] of the same compound?
A: 67.4%

Q: And the viability, T/C [7]?
A: 95.1%

Q: What about the viability, T/C [8] of the same compound?
A: 84.5%

Q: What about the viability, T/C [9] of the same compound?
A: 75.2%

Q: What about the viability, T/C [10] of the same compound?
A: 65.5%

Q: What about the viability, T/C [11] of the same compound?
A: 74.6%

Q: And the viability, T/C [12]?
A: 66.9%

Q: And the viability, T/C [13]?
A: 74.5%

Q: What about the viability, T/C [14] of the same compound?
A: 75.7%

Q: What about the viability, T/C [15] of the same compound?
A: 47.8%

Q: And the viability, T/C [16]?
A: 64%

Q: And the viability, T/C [17]?
A: 59%

Q: What about the viability, T/C [18] of the same compound?
A: 39.8%

Q: And the viability, T/C [19]?
A: 65.8%

Q: And the viability, T/C [20]?
A: 47.6%

Q: And the viability, T/C [21]?
A: 59.5%

Q: And the viability, T/C [22]?
A: 52.9%

Q: And the viability, T/C [23]?
A: 50.1%

Q: And the viability, T/C [24]?
A: 43.9%

Q: And the viability, T/C [25]?
A: 58.4%

Q: What about the viability, T/C [26] of the same compound?
A: 61.5%

Q: And the viability, T/C [27]?
A: 63.1%

Q: And the viability, T/C [28]?
A: 46.4%

Q: And the viability, T/C [29]?
A: 52.7%

Q: What about the viability, T/C [30] of the same compound?
A: 55.6%

Q: What about the viability, T/C [31] of the same compound?
A: 36.8%

Q: What about the viability, T/C [32] of the same compound?
A: 45.5%

Q: And the viability, T/C [33]?
A: 33.7%

Q: And the viability, T/C [34]?
A: 52.5%

Q: And the viability, T/C [35]?
A: 37.2%

Q: And the viability, T/C [36]?
A: 71.4%
